Data from patent US10988730B2, “Sand worm lyophilisate and uses thereof” (HEMARINA, priority 2013, dated 2021).

Legend:
Lactococcus lactis SB50 [1] = experiment: Flask culture of Lactococcus lactis SB50, optical density; format: cell-based
Method: (§1) Sample Preparation • i) Flask culture: dissolution of the powders at 200 g/l then filtration of the supernatant and addition to the flasks. • ii) Bioreactor culture: direct addition to the reactors in a proportion of 1 g/l of powder before autoclaving.
Culture Conditions • i) Flask (100 ml, 0.5 and 11) culture:
(§2) The strain used is a strain of Lactococcus lactis SB50.
The tests were carried out overnight (16-18 h) at 30° C. with shaking at 180 rpm.
The composition of the culture medium for the strain is the following: glucose (1%), maltose (0.1%), yeast extract (2%) and minerals.
The culture conditions are the following: filling to 10% useful volume; a positive control with addition of hemin (hemoglobin of bovine origin) at 10 ppm final concentration is used.
(§3) The HEMARINA samples (powders in solution) were added post-sterilization after centrifugation. • ii) Bioreactor (11 useful volume) culture:
(§4) The optical density (OD) at 600 nm is measured for each culture.

Lactococcus lactis SB50 [2] = experiment: Bioreactor culture of Lactococcus lactis SB50 (OD, dry weight, NH4OH volume, viability); format: cell-based
Method: as §1, §2, §3
The tests were carried out overnight (15-16 h) at 30° C.
The composition of the culture medium for the strain is identical to that of the flasks, with an addition of 0.01% antifoam.
The culture conditions are the following: filling to 60% useful volume, pO2 regulated at 20% or 80% and pH regulated at 6.
1 g/l of powder are added directly to the culture medium before autoclaving.
as §4

[3] = overnight (15-16 h), 30° C., 1 g/l of powder

**Q.** With hemin as the substance, how does the active concentration (Lactococcus lactis SB50 [1]; equivalent to that of hemin) read?
**A.** approximately 0.25 ppm

**Q.** And the “OD at 600 nm” value (Lactococcus lactis SB50 [1]; overnight (16-18 h), 30° C., 180 rpm, hemin 10 ppm final concentration)?
**A.** 4.5

**Q.** And the Dry weight (Lactococcus lactis SB50 [2]; [3])?
**A.** 3.4 g/L

**Q.** And the Viability (Lactococcus lactis SB50 [2]; [3])?
**A.** 5.03E+09 CFU/ml

**Q.** And the “OD at 600 nm” value (Lactococcus lactis SB50 [2]; overnight (15-16 h), 30° C., pH 6, 1 g/l of powder)?
**A.** 10.9

**Q.** And the “Volume NH4OH (corresponding to production of lactic acid)” value (Lactococcus lactis SB50 [2]; pH regulated at 6, 1 g/l of powder)?
**A.** 12.3 mL
